ChEMBL document CHEMBL1156829 (Proc Natl Acad Sci U S A, 2008)

Experiments:
[1] = tested on: Plasmodium falciparum; assay: NOVARTIS: Inhibition of Plasmodium falciparum 3D7 (drug-susceptible) proliferation in erythrocyte-based infection assay; type: functional, organism-based; conditions: Plasmodium falciparum, 3D7
[2] = tested on: Plasmodium falciparum; assay: NOVARTIS: Inhibition of Plasmodium falciparum W2 (drug-resistant) proliferation in erythrocyte-based infection assay; type: functional, organism-based; conditions: Plasmodium falciparum, W2; read-out: EC50
[3] = NOVARTIS: Cytotoxicity against human hepatocellular carcinoma cell line (Huh7); type: toxicity, cell-based, Huh-7; conditions: Huh7 cells (hepatocellular carcinoma cell line)

Compound	EC50 [1]	EC50 [2]	CC50 [3]
COc1cc([C@@H]2OC[C@@H]3[C@H]2CO[C@H]3c2cc(OC)c(O[C@@H]3O[C@H](CO)[C@@H](O)[C@H](O)[C@H]3O)c(OC)c2)cc(OC)c1O [ACANTHOSIDE B]	771 nM	388 nM	> 10000 nM
CC(C)(C)CC(C)(C)Nc1c(-c2ccccc2OC(=O)c2ccc(Br)cc2)nc2ccccn12	1310 nM	96 nM	> 1430 nM
CCN(CC)CCCC(C)N=c1[nH]c(C=Cc2ccccc2OC)nc2cc(Cl)ccc12 (configuration not stated)	30.8 nM	160 nM	7930 nM
NC(Cc1ccccc1)C(=O)N1CCn2c(nc(-c3ccccc3)c2Nc2ccc3c(c2)OCO3)C1 (configuration not stated)	30.4 nM	29.1 nM	42800 nM
CC(C)N(CC(=O)Nc1cc(C(C)(C)C)nn1-c1ccc(Cl)cc1)C(=O)c1ccc(C(C)(C)C)cc1	9960 nM	4480 nM	> 100000 nM
Cc1ccc(F)cc1NC(=O)Cn1c2ccccc2c(=O)c2cc(Cl)ccc21	1180 nM	694 nM	> 100000 nM
CC(C)(C)C1CCc2[nH]c3ccccc3c(=O)c2C1 (configuration not stated)	852 nM	976 nM	> 100000 nM
CCOc1ccc(C(=O)Nc2cccc(-c3nc4cc(C)ccc4o3)c2C)cc1	> 1250 nM	> 968 nM	> 10000 nM
Cc1c(Cl)cccc1NC(=S)N1CCCN(c2ccc(C(F)(F)F)cc2[N+](=O)[O-])CC1	254 nM	202 nM	51400 nM
Cc1ccc(-c2nnc(NCc3ccccc3)c3ccccc23)cc1S(=O)(=O)NCC1CCCO1 (configuration not stated)	1850 nM	2570 nM	> 100000 nM
CCN1CCN(c2nc3ccccn3c(=O)c2/C=C2\SC(=S)N(C(C)C)C2=O)CC1	717 nM	260 nM	> 10000 nM
COc1ccccc1/C=C\CN(C(=O)c1ccc(C)cc1)C(c1ccccc1)c1ccccc1	1120 nM	> 1350 nM	> 4360 nM
CCNc1nc(NC(C)C)nc(NC(N)NOC)n1 (configuration not stated)	> 1150 nM	> 1400 nM	> 10000 nM
CON(C)C(=O)c1cccc2ccccc12	856 nM	> 1250 nM	> 10000 nM
Cc1ccc(-c2c3c(nc4sc(C(=O)Nc5ccc(F)cc5)c(N)c24)CCC3)cc1	68.8 nM	27.2 nM	> 100000 nM
CCOc1ccc2nc(C)c(CN(C)Cc3ccccc3)c(O)c2c1	> 1250 nM	969 nM	> 10000 nM
CCCc1nc2ccc(NC(=O)c3ccccc3F)cc2c(=O)n1Cc1ccc(-c2ccccc2)cc1	1080 nM	217 nM	> 100000 nM

Compound	EC50 [1]	EC50 [2]	CC50 [3]
Cc1ccc(NC(=O)c2cc(C(=O)c3cc(Cl)ccc3O)cn(-c3ccc(C)cc3C)c2=O)c(C)c1	934 nM	885 nM	59000 nM
N=C(NN=Cc1cccc([N+](=O)[O-])c1)SC1CC(=O)N(c2cc(Cl)ccc2Cl)C1=O (configuration not stated)	> 1250 nM	> 1190 nM	> 10000 nM
CC(=O)NCCc1nc2ccccc2n1Cc1ccc(C(C)C)cc1	764 nM	98.1 nM	48700 nM
CCCCCCCn1c(=N)n(CC(O)c2ccc(Cl)c(Cl)c2)c2ccccc21 (configuration not stated)	204 nM	33.5 nM	6500 nM
CCC(=O)N1CCN(C(=O)c2ccc(C)cc2)C1	> 1500 nM	1280 nM	> 10000 nM
COc1ccc(OC)c(C2CC(=O)N3CN(Cc4ccccc4)CSC3=C2C#N)c1 (configuration not stated)	638 nM	482 nM	> 100000 nM
CCCCN(CCCC)CCCNc1ncnc2c1[nH]c1ccc(C)cc12	148 nM	100 nM	7410 nM
CCOC(=O)c1c(CNCCN(CC)CC)n(C)c2cc(Br)c(O)cc12	515 nM	185 nM	> 100000 nM
Clc1cccc(C(Nc2cccnc2)(c2ccccc2)c2ccccc2)c1	618 nM	1190 nM	> 10000 nM
CC(=O)N1CCOC1C(C)(C)CC=C(C)CCC=C(C)C (configuration not stated)	2040 nM	1340 nM	> 100000 nM
CCSCCOC(=O)C1=C(C)NC2=C(C(=O)CCC2)C1c1ccc(OC)c(Br)c1 (configuration not stated)	371 nM	360 nM	> 100000 nM
O=C1[C@H]2Cc3c([nH]c4ccccc34)C(CCc3ccccc3)N2C(=O)CN1CCc1c[nH]c2ccccc12 (some centres not stated)	1350 nM	208 nM	> 10000 nM
CC(=O)N(C1=C(N2CCCC2)C(=O)c2ccccc2C1=O)c1ccc(I)cc1	553 nM	224 nM	47000 nM
O=C(c1ccc(F)cc1Cl)N1CCN(c2nc(-c3cccs3)ns2)CC1	351 nM	78.9 nM	> 10000 nM
Cc1cccc(NC(c2ccncc2)c2ccc3cccnc3c2O)n1 (configuration not stated)	669 nM	375 nM	69900 nM
CC[N+](C)(CC)CCSc1nc2ccccc2c(=S)n1-c1ccc(OC)cc1	285 nM	451 nM	> 10000 nM
COc1ccccc1CCNCc1cc(-c2ccc(F)cc2)ccc1O	1050 nM	869 nM	> 10000 nM
